Results as given in US20240317735A1, “HYDROISOQUINOLINE OR HYDRONAPHTHYRIDINE COMPOUNDS FOR THE TREATMENT OF AUTOIMMUNE DISEASE” (Hoffmann-La Roche Inc., priority 2020, published 2024).
Values belong to the compound of their own block, whether it stands above or below them.

How the values were obtained:
hERG channel = molecular target: T1, hERG channel (Homo sapiens, UniProt Q12809); experiment: hERG channel inhibition assay (patch-clamp, CHOhERG cells); assay type: cell-based; details: for IC50 / IC20: CHOhERG cells, whole-cell patch-clamp; for IC20: human, CHO cells stably expressing hERG (CHOhERG); for hERG IC20/TLR7 IC50 / hERG IC20/TLR8 IC50 / hERG IC20/TLR9 IC50: safety ratio; for hERG IC20/TLR7 IC50: hERG IC20 over HEK/hTLR7 IC50; for hERG IC20/TLR8 IC50: hERG IC20 over HEK/hTLR8 IC50; for hERG IC20/TLR9 IC50: hERG IC20 over HEK/hTLR9 IC50
T1 construct: expressed in transfected cells; host or cells: CHO (CHOhERG)
T1 sequence (Q12809 whole entry): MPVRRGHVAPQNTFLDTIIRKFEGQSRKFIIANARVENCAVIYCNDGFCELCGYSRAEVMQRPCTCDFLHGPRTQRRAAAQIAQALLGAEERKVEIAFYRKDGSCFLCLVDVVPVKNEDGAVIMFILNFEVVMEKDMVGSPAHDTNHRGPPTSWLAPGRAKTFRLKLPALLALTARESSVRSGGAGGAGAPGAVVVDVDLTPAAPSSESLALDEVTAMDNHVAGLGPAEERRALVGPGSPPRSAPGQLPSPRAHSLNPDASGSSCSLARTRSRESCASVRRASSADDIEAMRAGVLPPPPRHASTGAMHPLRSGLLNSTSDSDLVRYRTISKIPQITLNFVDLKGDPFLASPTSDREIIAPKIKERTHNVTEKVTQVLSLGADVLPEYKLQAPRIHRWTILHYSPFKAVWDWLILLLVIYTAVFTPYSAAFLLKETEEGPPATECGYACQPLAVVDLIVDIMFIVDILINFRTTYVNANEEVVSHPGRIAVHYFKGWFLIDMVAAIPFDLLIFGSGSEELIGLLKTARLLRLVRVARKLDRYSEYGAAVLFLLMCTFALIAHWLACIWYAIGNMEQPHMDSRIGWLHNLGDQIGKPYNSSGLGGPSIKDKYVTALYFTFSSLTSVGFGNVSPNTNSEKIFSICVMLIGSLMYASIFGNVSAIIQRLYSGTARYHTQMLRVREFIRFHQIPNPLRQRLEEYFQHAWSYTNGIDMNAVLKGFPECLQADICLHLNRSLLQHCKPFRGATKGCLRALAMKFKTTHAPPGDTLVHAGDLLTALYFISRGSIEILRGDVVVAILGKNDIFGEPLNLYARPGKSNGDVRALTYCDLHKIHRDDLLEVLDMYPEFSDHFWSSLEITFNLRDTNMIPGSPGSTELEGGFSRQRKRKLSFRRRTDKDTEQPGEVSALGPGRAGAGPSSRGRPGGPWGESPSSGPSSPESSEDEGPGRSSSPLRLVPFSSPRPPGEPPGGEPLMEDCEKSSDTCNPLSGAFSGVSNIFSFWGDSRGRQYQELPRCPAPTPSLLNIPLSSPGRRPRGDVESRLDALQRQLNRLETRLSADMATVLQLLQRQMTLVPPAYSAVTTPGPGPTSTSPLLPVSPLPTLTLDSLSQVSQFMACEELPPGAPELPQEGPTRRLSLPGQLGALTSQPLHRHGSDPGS
Method: The hERG K^+ channels were cloned in humans and stably expressed in a CHO (Chinese hamster ovary) cell line. CHOhERG cells were used for patch-clamp (voltage-clamp, whole-cell) experiments. Cells were stimulated by a voltage pattern to activate hERG channels and conduct IKhERG currents (rapid delayed outward rectifier potassium current of the hERG channel). After the cells were stabilized for a few minutes, the amplitude and kinetics of IKhERG were recorded at a stimulation frequency of 0.1 Hz (6 bpm). Thereafter, the test compound was added to the preparation at increasing concentrations. For each concentration, an attempt was made to reach a steady-state effect, usually, this was achieved within 3-10 min at which time the next highest concentration was applied. The amplitude and kinetics of IKhERG are recorded in each concentration of the drug which were compared to the control values (taken as 100%). (references: Redfern W S, Carlsson L, Davis A S, Lynch W G, MacKenzie I, Palethorpe S, Siegl P K, Strang I, Sullivan A T, Wallis R, Camm A J, Hammond T G. 2003; Relationships between preclinical cardiac electrophysiology, clinical QT interval prolongation and torsade de pointes for a broad range of drugs: evidence for a provisional safety margin in drug development. Cardiovasc. Res. 58:32-45, Sanguinetti MC, Tristani-Firouzi M. 2006; hERG potassium channels and cardiac arrhythmia. Nature 440:463-469, Webster R, Leishman D, Walker D. 2002; Towards a drug concentration effect relationship for QT prolongation and torsades de pointes. Curr. Opin. Drug Discov. Devel. 5:116-26).

TLR9 = molecular target: T2, TLR9 (Homo sapiens, UniProt Q9NR96); experiment: HEK293-Blue-hTLR-9 cells assay (SEAP reporter, ODN2006 stimulation); assay type: cell-based; set-up: host or cells: HEK293 (HEK-Blue hTLR9); details: HEK293-Blue-hTLR9 cells, ODN2006, 20 hrs; read-out: HEK/hTLR9 IC50
T2 sequence (Q9NR96 26-1032): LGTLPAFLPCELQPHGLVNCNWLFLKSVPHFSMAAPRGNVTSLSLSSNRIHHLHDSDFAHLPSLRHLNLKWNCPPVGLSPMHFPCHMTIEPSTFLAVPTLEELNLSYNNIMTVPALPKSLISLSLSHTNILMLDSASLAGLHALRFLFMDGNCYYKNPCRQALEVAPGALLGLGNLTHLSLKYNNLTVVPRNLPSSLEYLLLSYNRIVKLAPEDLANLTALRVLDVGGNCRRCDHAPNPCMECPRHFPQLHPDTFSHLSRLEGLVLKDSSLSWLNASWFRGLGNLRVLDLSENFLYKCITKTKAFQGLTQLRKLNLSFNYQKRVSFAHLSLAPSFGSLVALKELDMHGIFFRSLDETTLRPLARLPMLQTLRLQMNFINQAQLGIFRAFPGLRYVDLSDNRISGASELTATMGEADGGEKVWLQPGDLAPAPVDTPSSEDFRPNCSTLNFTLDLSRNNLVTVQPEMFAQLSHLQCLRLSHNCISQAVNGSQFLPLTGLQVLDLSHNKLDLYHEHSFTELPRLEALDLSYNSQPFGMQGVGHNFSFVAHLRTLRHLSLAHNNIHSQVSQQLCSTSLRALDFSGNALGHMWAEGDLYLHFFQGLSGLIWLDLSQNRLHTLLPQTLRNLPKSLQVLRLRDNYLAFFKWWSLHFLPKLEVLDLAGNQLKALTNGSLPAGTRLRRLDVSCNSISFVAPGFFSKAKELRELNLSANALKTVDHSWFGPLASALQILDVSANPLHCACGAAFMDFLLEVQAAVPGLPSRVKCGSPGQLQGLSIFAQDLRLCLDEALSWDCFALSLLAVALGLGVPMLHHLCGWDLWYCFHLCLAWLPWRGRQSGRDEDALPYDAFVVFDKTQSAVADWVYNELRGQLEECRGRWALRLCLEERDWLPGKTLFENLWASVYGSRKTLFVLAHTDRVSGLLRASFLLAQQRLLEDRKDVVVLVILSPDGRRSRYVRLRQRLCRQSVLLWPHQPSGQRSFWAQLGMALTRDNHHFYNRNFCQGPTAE
Method: The following tests were carried out in order to determine the activity of the compounds of formula (I) and (Ia) in HEK293-Blue-hTLR-7/8/9 cells assay.
A stable HEK293-Blue-hTLR-9 cell line was purchased from InvivoGen (Cat. #: hkb-htlr9, San Diego, California, USA). These cells were originally designed for studying the stimulation of human TLR9 by monitoring the activation of NF-κB. A SEAP (secreted embryonic alkaline phosphatase) reporter gene was placed under the control of the IFN-β minimal promoter fused to five NF-κB and AP-1-binding sites. The SEAP was induced by activating NF-κB and AP-1 via stimulating HEK-Blue hTLR9 cells with TLR9 ligands. Therefore the reporter expression was declined by TLR9 antagonist under the stimulation of a ligand, such as ODN2006 (Cat. #: tlrl-2006-1, Invivogen, San Diego, California, USA), for incubation of 20 hrs. The cell culture supernatant SEAP reporter activity was determined using QUANTI-Blue™ kit (Cat. #: rep-qb1, Invivogen, San Diego, California, USA) at a wavelength of 640 nm, a detection medium that turns purple or blue in the presence of alkaline phosphatase.
HEK293-Blue-hTLR9 cells were incubated at a density of 250,000-450,000 cells/mL in a volume of 170 μL in a 96-well plate in Dulbecco's Modified Eagle's medium (DMEM) containing 4.5 g/L glucose, 50 U/mL penicillin, […], […], 2 mM L-glutamine, 10% (v/v) heat-inactivated fetal bovine serum with addition of 20 μL test compound in a serial dilution in the presence of final DMSO at 1% and 10 μL of 20 uM ODN2006 in above DMEM, perform incubation under 37° C. in a CO2 incubator for 20 hrs. Then 20 μL of the supernatant from each well was incubated with 180 μL Quanti-blue substrate solution at 37° C. for 2 h and the absorbance was read at 620˜655 nm using a spectrophotometer.
The signaling pathway that TLR9 activation leads to downstream NF-κB activation has been widely accepted, and therefore similar reporter assay was modified for evaluating TLR9 antagonist.

Compound: Cn1ncc2c(N3CCc4cc(N5CCNCC5)ccc4C3)ccnc21 [Example 3, 2-(1-methylpyrazolo[3,4-b]pyridin-4-yl)-6-piperazin-1-yl-3,4-dihydro-1H-isoquinoline]
IC50 (hERG channel): > 20 µM | IC20 (hERG channel): > 10 µM | hERG IC20/TLR7 IC50 (hERG channel): >526.3 | hERG IC20/TLR8 IC50 (hERG channel): >178.6 | hERG IC20/TLR9 IC50 (hERG channel): >54.1 | IC50 (TLR9): 0.185 µM

Compound: C[C@H]1CN(c2ccnc3c2cnn3C)Cc2ccc(OC[C@@H]3CNCCN3)cc21 [Example 19, (4R)-4-methyl-2-(1-methylpyrazolo[3,4-b]pyridin-4-yl)-6-[[(2S)-piperazin-2-yl]methoxy]-3,4-dihydro-1H-isoquinoline]
IC50 (hERG channel): > 20 µM | IC20 (hERG channel): 6.3 µM | hERG IC20/TLR7 IC50 (hERG channel): 787.5 | hERG IC20/TLR8 IC50 (hERG channel): 1575.0 | hERG IC20/TLR9 IC50 (hERG channel): 62.4 | IC50 (TLR9): 0.101 µM

Compound: C[C@H]1CN(c2ccnc3c2cnn3C)Cc2ccc(N3C[C@@H]4CNCCN4C3=O)cc21 [Example 25, (8aS)-2-[(4R)-4-methyl-2-(1-methylpyrazolo[3,4-b]pyridin-4-yl)-3,4-dihydro-1H-isoquinolin-6-yl]-1,5,6,7,8,8a-hexahydroimidazo[1,5-a]pyrazin-3-one]
IC50 (hERG channel): > 20 µM | IC20 (hERG channel): > 10 µM | hERG IC20/TLR7 IC50 (hERG channel): >666.7 | hERG IC20/TLR8 IC50 (hERG channel): >33333.3 | hERG IC20/TLR9 IC50 (hERG channel): >34.4 | IC50 (TLR9): 0.291 µM

Compound: Cc1cc(N2Cc3ccc(N4CCNCC4)cc3[C@@H](C)C2)c2cnn(C)c2n1 [Example 2, (4R)-2-(1,6-dimethylpyrazolo[3,4-b]pyridin-4-yl)-4-methyl-6-piperazin-1-yl-3,4-dihydro-1H-isoquinoline]
IC50 (TLR9): 0.086 µM

Compound: C[C@H]1CN(c2ccnc3c2cnn3C)Cc2ccc(N3CCN(Cc4cn(C)cn4)CC3)cc21 [Example 37, (4R)-4-methyl-6-[4-[(1-methylimidazol-4-yl)methyl]piperazin-1-yl]-2-(1-methylpyrazolo[3,4-b]pyridin-4-yl)-3,4-dihydro-1H-isoquinoline]
IC50 (TLR9): 0.222 µM

Compound: C[C@H]1CN(c2ccnc3c2cnn3C)Cc2ccc(N3CCN(C(=O)C4CCCN4)CC3)cc21 (stereo partly drawn) [Example 8, pyrrolidin-2-yl-[4-[(4R)-4-methyl-2-(1-methylpyrazolo[3,4-b]pyridin-4-yl)-3,4-dihydro-1H-isoquinolin-6-yl]piperazin-1-yl]methanone]
IC50 (TLR9): 0.14 µM

Compound: C[C@H]1CN(c2ccnc3c2cnn3C)Cc2ccc(N3CCN(C(=O)C4CCNCC4)CC3)cc21 [Example 7, 4-piperidyl-[4-[(4R)-4-methyl-2-(1-methylpyrazolo[3,4-b]pyridin-4-yl)-3,4-dihydro-1H-isoquinolin-6-yl]piperazin-1-yl]methanone]
IC50 (TLR9): 0.104 µM

Compound: C[C@H]1CN(c2ccnc3c2cnn3C)Cc2ccc(N3C[C@H]4CNCCN4C3=O)cc21 [Example 24, (8aR)-2-[(4R)-4-methyl-2-(1-methylpyrazolo[3,4-b]pyridin-4-yl)-3,4-dihydro-1H-isoquinolin-6-yl]-1,5,6,7,8,8a-hexahydroimidazo[1,5-a]pyrazin-3-one]
IC50 (TLR9): 0.311 µM

The next lines start with results.

IC50 (TLR9): 0.21 µM
Compound: C[C@H]1CN(c2ccnc3c2cnn3C)Cc2ccc(N3C[C@@]4(CCNC4)CC3=O)cc21 (single isomer, unassigned) [Example 53]
IC50 (hERG channel): > 20 µM | IC20 (hERG channel): > 10 µM | hERG IC20/TLR7 IC50 (hERG channel): >555.6 | hERG IC20/TLR8 IC50 (hERG channel): >1666.7 | hERG IC20/TLR9 IC50 (hERG channel): >47.6

IC50 (TLR9): 0.23 µM
Compound: Cc1cc(N2Cc3ccc(N4C[C@@H](N)[C@H](O)C4)cc3[C@@H](C)C2)c2cnn(C)c2n1 [Example 47, trans-4-amino-1-[(4R)-2-(1,6-dimethylpyrazolo[3,4-b]pyridin-4-yl)-4-methyl-3,4-dihydro-1H-isoquinolin-6-yl]pyrrolidin-3-ol]

IC50 (TLR9): 0.335 µM
Compound: CO[C@@H]1CN(c2cc3c(cn2)CN(c2cc(C)nc4c2cnn4C)C[C@@H]3C)C[C@H]1N [Example 78, (3R,4R)-4-methoxy-1-[(5R)-7-(1,6-dimethylpyrazolo[3,4-b]pyridin-4-yl)-5-methyl-6,8-dihydro-5H-2,7-naphthyridin-3-yl]pyrrolidin-3-amine]

IC50 (TLR9): 0.36 µM
Compound: C[C@H]1CN(c2ccnc3c2cnn3C)Cc2ccc(N3C[C@@H](N)[C@H](O)C3)cc21 [Example 46, trans-4-amino-1-[(4R)-4-methyl-2-(1-methylpyrazolo[3,4-b]pyridin-4-yl)-3,4-dihydro-1H-isoquinolin-6-yl]pyrrolidin-3-ol]

IC50 (TLR9): 0.242 µM
Compound: C[C@H]1CN(c2ccnc3c2cnn3C)Cc2ccc(OC[C@H]3CNCCN3C)cc21 [Example 43, (4R)-4-methyl-2-(1-methylpyrazolo[3,4-b]pyridin-4-yl)-6-[[(2R)-1-methylpiperazin-2-yl]methoxy]-3,4-dihydro-1H-isoquinoline]

IC50 (TLR9): 0.113 µM
Compound: Cc1cc(N2Cc3ccc(N4CCNCC4)nc3[C@H](C)C2)c2cnn(C)c2n1 [Example 72, (8R)-6-(1,6-dimethylpyrazolo[3,4-b]pyridin-4-yl)-8-methyl-2-piperazin-1-yl-7,8-dihydro-5H-1,6-naphthyridine]

IC50 (TLR9): 0.199 µM
Compound: Cc1cc(N2Cc3ccc(N4CCC(N)CC4)nc3[C@@H](C)C2)c2cnn(C)c2n1 [Example 58, 1-[(8S)-6-(1,6-dimethylpyrazolo[3,4-b]pyridin-4-yl)-8-methyl-7,8-dihydro-5H-1,6-naphthyridin-2-yl]piperidin-4-amine]

IC50 (TLR9): 0.229 µM
Compound: Cc1cc(N2Cc3ccc(N4CC5(CNCCO5)C4)cc3[C@@H](C)C2)c2cnn(C)c2n1 [Example 48, 2-[(4R)-2-(1,6-dimethylpyrazolo[3,4-b]pyridin-4-yl)-4-methyl-3,4-dihydro-1H-isoquinolin-6-yl]-5-oxa-2,8-diazaspiro[3.5]nonane]
